3 compounds from patent US20120220665A1, “Inhibiting Neurotransmitter Reuptake” (MAYO FOUNDATION FOR MEDICAL EDUCATION AND RESEARCH, priority 2009, published 2012) can be followed below.

One may read the Kd as the concentration at which binding is half-saturated.

The target of experiment [1] is T1, human dopamine transporter (hDAT) (Homo sapiens, UniProt Q01959).
T1 construct: expressed in transfected cells; host or cells: HEK-293, stably transfected; membranes
Nature of the experiment: Human transporter radioligand binding, hDAT ([3H]WIN35428, HEK-293 membranes). The settings on record: HCl salts of test compounds; n ≥ 3, values marked b n = 1; read-out: Equilibrium Dissociation Constant (KD) for Transporter Binding (Geometric Mean; nM ± SEM) hDAT (D). On the procedure:
(§1) HEK-293 cells expressing the recombinant hSERT or hDAT were incubated with Dulbecco's modified Eagles medium (MEM) supplemented with 0.1 mM nonessential amino acid solution for MEM, 5% v/v fetal bovine serum and […] penicillin/streptomycin solution. Cells expressing the hNET transporter were incubated with Dulbecco's modified Eagles medium supplemented with 10% v/v fetal bovine serum and 100 U/mL penicillin/streptomycin solution and 2 mM L-glutamine. All cells were grown until 70-80% confluent on 175 cm^2 flasks in a humidified 10% CO2/90% air environment at 37° C., with the selecting antibiotic Geneticin sulfate at […]. The cells were incubated in 10% CO2, 90% air at 37° C. and 100% humidity.
(§2) Cell membranes containing hSERT, hNET, or hDAT were prepared from the cell lines to assay ligand binding for each of the transporters. […] The washed cells were incubated for 5 minutes at 37° C. in 10 mL solution 1 containing 100 mM ethylene glycol-bis N,N,N′,N′-tetraacetic acid (EGTA). The cells were then scraped from the flask surface with a rubber spatula, placed into a centrifuge tube, and collected by centrifugation at 1000×g for 5 minutes at 4° C. The resulting supernatant was discarded, and the cell pellet was resuspended in 0.5 to1.0 mL of the appropriate binding buffer (described below). The resuspended cell pellet was homogenized using a Polytron for 10 seconds at setting 6. The resulting homogenate was centrifuged at about 36,000×g for 10 minutes at 4° C. The supernatant was discarded, and the pellet was resuspended in the same volume of the appropriate binding buffer and centrifuged again. The supernatant was discarded, and the final pellet containing cell membranes was resuspended in the appropriate binding buffer and stored at −80° C. until use.
To assess binding to the cloned hDAT, cells expressing hDAT were homogenized in 50 mM Tris-HCl with 120 mM NaCl (pH 7.4). The binding reaction contained 15 μg cell membrane protein, 1 nM [^3H]WIN35428 (WIN35428, [N-methyl-^3H], specific activity 85.9 Ci/mmol; PerkinElmer, Boston, Mass.), and varying concentrations of either unlabeled WIN35428 or the test compound. A reaction to determine non-specific binding contained 15 μg cell membrane protein, 1 nM [^3H]WIN35428, and 10 μM final concentration of unlabeled WIN35428. The reactions were incubated at 22° C. for 1 hour. Following incubation, the reactions were terminated by rapid filtration through separate GF/B filter strips pretreated with 0.2% polyethylenimine in a 48-well Brandel cell harvester. The cell membrane-containing filter strips were then rinsed five times with ice-cold 0.9% NaCl. After rinsing, individual filters were cut from the strip and placed in a scintillation vial containing 6.5 mL of Redi-Safe (Beckman-Coulter, Fullerton, Calif.). Radioactivity was measured with a Beckman liquid scintillation counter (LS 6000TA).
(§3) Following the radioligand binding assays, the data were analyzed using the
(§4) The program was modified to calculate the Hill coefficient (nH). Data are presented as geometric mean±S.E.M. of at least three independent experiments. One-component models and two-component models were compared using the root mean square error of each fit and the F test.

Experiment [2] addresses T2, human serotonin transporter (hSERT) (Homo sapiens, UniProt P31645).
T2 construct: expressed in transfected cells; host or cells: HEK-293, stably transfected; membranes
The experiment is described as follows: Human transporter radioligand binding, hSERT ([3H]citalopram, HEK-293 membranes). The settings on record: HCl salts of test compounds; n ≥ 3, values marked b n = 1; read-out: Equilibrium Dissociation Constant (KD) for Transporter Binding (Geometric Mean; nM ± SEM) hSERT (S). How it is done:
as §1, §2
(§5) Radioligand binding assays for the indicated transporters were performed as follows. To assess binding to the cloned hSERT, cells expressing hSERT were homogenized in 50 mM Tris-HCl with 120 mM NaCl and 5 mM KCl (pH 7.4). The binding reaction consisted of 10 μg cell membrane protein, 1.0 nM [^3H]citalopram (citalopram, [N-methyl-^3H], specific activity 79.0 Ci/mmol; PerkinElmer, Boston, Mass.), and varying concentrations of either unlabeled citalopram or the test compound. A reaction to determine non-specific binding consisted of 10 μg cell membrane protein, 0.5 nM [^3H]citalopram, and 1 μM final concentration of unlabeled citalopram. The reactions were incubated at 22° C. for 60 minutes. Following incubation, the reactions were terminated by rapid filtration through separate GF/B filter strips pretreated with 0.2% polyethylenimine in a 48-well Brandel cell harvester. The cell membrane-containing filter strips were then rinsed five times with ice-cold 0.9% NaCl. After rinsing, individual filters were cut from the strip and placed in a scintillation vial containing 6.5 mL of Redi-Safe (Beckman-Coulter, Fullerton, Calif.). Radioactivity was measured with a Beckman liquid scintillation counter (LS 6000TA).
as §3, §4

For experiment [3], the system named is hSERT (S), hNET (N), hDAT (D). The experiment is described as follows: Comparison of binding potency across the three human transporters. The settings on record: for Potency (rank order of transporter binding): S = hSERT, N = hNET, D = hDAT, order by KD; for Potency Range: highest KD / lowest KD among hSERT, hNET, hDAT. How it is done:
as §1, §2, §5
(§6) To assess binding to the cloned hNET, cells expressing hNET were homogenized in 50 mM Tris-HCl with 300 mM NaCl and 5 mM KCl (pH 7.4). The binding reaction consisted of 5 μg cell membrane protein, 0.5 nM [^3H]nisoxetine (nisoxetine HCl, [N-methyl-^3H], specific activity 82.0 Ci/mmol; Amersham, Arlington Hts., Ill.), and varying concentrations of either unlabeled nisoxetine or the test compound. A reaction to determine non-specific binding consisted of 5 μg cell membrane protein, 0.5 nM [^3H]nisoxetine, and 1 μM final concentration of unlabeled nisoxetine. The reactions were incubated at 22° C. for 60 minutes. Following incubation, the reactions were terminated by rapid filtration through separate GF/B filter strips pretreated with 0.2% polyethylenimine in a 48-well Brandel cell harvester. The cell membrane-containing filter strips were then rinsed five times with ice-cold 0.9% NaCl.

The target of experiment [4] is T3, human norepinephrine transporter (hNET) (Homo sapiens, UniProt P23975).
T3 construct: expressed in transfected cells; host or cells: HEK-293, stably transfected; membranes
The experiment is described as follows: Human transporter radioligand binding, hNET ([3H]nisoxetine, HEK-293 membranes). The note with it: HCl salts of test compounds; n ≥ 3, values marked b n = 1; read-out: Equilibrium Dissociation Constant (KD) for Transporter Binding (Geometric Mean; nM ± SEM) hNET (N). How it is done:
as §1, §2
as §6, with “NaCl. After rinsing, individual filters were cut from the strip and placed in a scintillation vial containing 6.5 mL of Redi-Safe (Beckman-Coulter, Fullerton, Calif.). Radioactivity was measured with a Beckman liquid scintillation counter (LS 6000TA).” for “NaCl.”
as §3, §4

T3 sequence (P23975 whole entry): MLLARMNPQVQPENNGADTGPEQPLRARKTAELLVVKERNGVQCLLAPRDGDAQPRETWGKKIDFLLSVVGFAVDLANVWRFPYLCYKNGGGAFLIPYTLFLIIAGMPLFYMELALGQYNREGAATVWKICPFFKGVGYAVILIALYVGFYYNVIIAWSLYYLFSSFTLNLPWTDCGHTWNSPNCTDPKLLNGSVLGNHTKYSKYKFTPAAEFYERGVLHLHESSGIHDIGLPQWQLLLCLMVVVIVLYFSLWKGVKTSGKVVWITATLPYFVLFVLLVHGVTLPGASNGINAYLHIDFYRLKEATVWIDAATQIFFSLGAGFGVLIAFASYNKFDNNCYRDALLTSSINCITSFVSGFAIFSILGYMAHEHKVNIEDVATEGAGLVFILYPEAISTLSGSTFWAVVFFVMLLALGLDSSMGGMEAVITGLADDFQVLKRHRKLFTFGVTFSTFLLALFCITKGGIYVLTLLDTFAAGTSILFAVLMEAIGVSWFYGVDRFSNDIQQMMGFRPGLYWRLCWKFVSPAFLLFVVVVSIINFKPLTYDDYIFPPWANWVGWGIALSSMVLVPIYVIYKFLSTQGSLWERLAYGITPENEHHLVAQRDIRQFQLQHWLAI
T2 sequence (P31645 whole entry): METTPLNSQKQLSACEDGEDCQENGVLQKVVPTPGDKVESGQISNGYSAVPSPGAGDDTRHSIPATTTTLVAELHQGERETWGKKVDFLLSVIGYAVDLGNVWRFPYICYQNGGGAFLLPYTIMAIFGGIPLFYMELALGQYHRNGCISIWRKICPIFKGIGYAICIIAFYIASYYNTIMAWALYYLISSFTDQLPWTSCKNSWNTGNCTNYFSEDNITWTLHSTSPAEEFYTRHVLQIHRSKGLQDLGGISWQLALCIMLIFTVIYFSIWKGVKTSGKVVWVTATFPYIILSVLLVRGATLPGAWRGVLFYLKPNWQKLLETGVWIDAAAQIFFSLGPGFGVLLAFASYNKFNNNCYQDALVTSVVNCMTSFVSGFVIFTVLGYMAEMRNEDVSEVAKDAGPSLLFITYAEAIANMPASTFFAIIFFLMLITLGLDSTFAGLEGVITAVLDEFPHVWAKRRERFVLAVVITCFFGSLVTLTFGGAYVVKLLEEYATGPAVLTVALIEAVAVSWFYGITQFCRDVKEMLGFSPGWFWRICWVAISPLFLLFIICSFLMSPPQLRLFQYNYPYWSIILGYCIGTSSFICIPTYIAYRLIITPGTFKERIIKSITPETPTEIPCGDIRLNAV
T1 sequence (Q01959 whole entry): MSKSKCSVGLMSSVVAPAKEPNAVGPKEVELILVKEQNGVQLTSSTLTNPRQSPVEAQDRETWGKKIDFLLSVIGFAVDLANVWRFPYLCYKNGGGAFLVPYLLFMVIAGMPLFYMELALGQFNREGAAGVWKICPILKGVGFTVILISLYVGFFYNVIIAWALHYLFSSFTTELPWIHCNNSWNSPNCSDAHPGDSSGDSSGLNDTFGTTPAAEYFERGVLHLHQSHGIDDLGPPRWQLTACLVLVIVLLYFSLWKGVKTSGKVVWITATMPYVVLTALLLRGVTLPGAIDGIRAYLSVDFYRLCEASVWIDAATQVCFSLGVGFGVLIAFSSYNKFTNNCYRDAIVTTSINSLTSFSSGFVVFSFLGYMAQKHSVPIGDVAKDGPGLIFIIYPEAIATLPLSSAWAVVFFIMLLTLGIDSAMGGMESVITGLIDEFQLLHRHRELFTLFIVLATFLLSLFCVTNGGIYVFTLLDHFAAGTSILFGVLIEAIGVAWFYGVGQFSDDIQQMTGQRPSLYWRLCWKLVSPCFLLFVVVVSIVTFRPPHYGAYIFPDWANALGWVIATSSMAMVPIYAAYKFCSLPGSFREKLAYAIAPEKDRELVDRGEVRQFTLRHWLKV

As for `CNC[C@H](c1ccc2ccccc2c1)[C@@H](OCCCCCCCO[C@@H](c1ccccc1)[C@H](CNC)c1ccc2ccccc2c1)c1ccccc1` [MCJ001-Dimer7-SS, (2S,2′S,3R,3′R)-3,3′-(heptane-1,7-diylbis(oxy))bis(N-methyl-2-(naphthalen-2-yl)-3-phenylpropan-1-amine)], the dissociation constant (Kd) in experiment [1] turned out to be 180 ± 20 nM; in experiment [2], 50 ± 3 nM; in experiment [4], 29 ± 1 nM. Moreover, the “Potency (rank order of transporter binding)” value in experiment [3] is reported as “N > S > D”. Also, the “Potency Range” value in experiment [3] came out at 6.

In the case of `CNC[C@@H](c1ccccc1)[C@@H](O)c1ccc2ccccc2c1` [MCJ001-NA-Ph—OH-SS/RR, (1S,1R/2S,2R)-3-(methylamino)-1-(naphthalen-2-yl)-2-phenylpropan-1-ol], the values for the dissociation constant (Kd) in experiment [1], in experiment [2] and in experiment [4] were 5800 ± 400 nM, 16 ± 2 nM and 1390 nM, respectively. In experiment [3], the “Potency (rank order of transporter binding)” value was “S > > N > D”. Further, the “Potency Range” value in experiment [3] stood at 370.

As for `CNC[C@H](c1ccccc1)[C@@H](O)c1ccc2ccccc2c1` [MCJ001-NA-Ph—OH-RS/SR, (1R,2S/1S,2R)-3-(methylamino)-1-(naphthalen-2-yl)-2-phenylpropan-1-ol], the dissociation constant (Kd) in experiment [1] was found to be 8900 ± 20 nM; in experiment [2], 75 ± 2 nM; in experiment [4], 7620 nM. For the same compound, the “Potency (rank order of transporter binding)” value in experiment [3] was “S > N > D”. Besides, the “Potency Range” value in experiment [3] came out at 120.
